Laboratory results reported in PMC7529893, “Structural basis for substrate recognition and chemical inhibition of oncogenic MAGE ubiquitin ligases” (Nature Communications, 2020).

Target: T1, MAGE-A11:PCF11 interaction (GST-MAGE-A11 MHD and FAM-PCF11_4) (Homo sapiens, UniProt P43364)
T1 construct: GST-MAGE-A11 MHD (human MAGE-A11 MHD amino acid 218-429); made in house; host or cells: E. coli BL21(DE3)
T1 sequence (P43364 218-429): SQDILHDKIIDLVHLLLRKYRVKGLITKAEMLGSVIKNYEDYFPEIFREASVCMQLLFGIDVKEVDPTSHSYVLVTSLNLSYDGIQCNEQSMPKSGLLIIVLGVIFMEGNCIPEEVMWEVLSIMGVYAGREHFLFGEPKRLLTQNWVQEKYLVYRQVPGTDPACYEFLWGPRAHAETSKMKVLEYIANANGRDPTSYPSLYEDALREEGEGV
Test: TR-FRET dose response test of compounds for disruption of MAGE-A11:PCF11 binding
Settings: Dose response TR-FRET screening of nine scaffold groups against MAGE-A11:PCF11; read-out: consensus IC50
Experimental: The TR-FRET assay buffer with a formula of 50 mM Tris pH 7.5, 20 mM MgCl2, 0.1 mg/ml BSA and 1 mM DTT was freshly prepared before each experiment. All TR-FRET assays were performed in black 384-well plates with 20 µl/well assay volume in the TR-FRET assay buffer at room temperature (~25 °C). All peptides or compounds were solubilized in DMSO. To test the competitive activity of peptides or compounds against the interaction between GST-MAGE-A11 MHD and FAM-PCF11_4 peptide, 10 µl/well peptide or compound at specified concentration was dispensed into a black 384-well low volume plate, followed by 5 µl/well FAM-PCF11_4 (800 nM), 5 µl/well Tb-anti-GST (20 nM), and GST-MAGE-A11 MHD (20 nM). The assay components in each well was then mixed by shaking the plate on an IKA MTS 2/4 digital microtiter plate shaker (IKA Works; Wilmington, NC, USA) for 1 min. The plate was further centrifuged in an Eppendorf 5810 centrifuge with an A-4-62 swing-bucket rotor (Eppendorf AG, Hamburg, Germany) at 201 g for 30 s. The plate was then incubated for 90 min with a lid to avoid light exposure to the assay components. After incubation, the fluorescent emission signals at 520 nm and 490 nm channels of individual wells were measured with a PHERAstar FS plate reader (BMG Labtech; Durham, NC, USA) by using a 340 nm excitation filter, 100 µs delay time, and 200 µs integration time. The TR-FRET fluorescence emission ratio (TR-FRET signal) for each well was presented as 10,000 × 520 nm/490 nm, which was used directly for curve fitting, or further converted to %Inhibition based on the respective positive and negative controls. The graphic software GraphPad Prism 4.81 (GraphPad Software; La Jolla, CA, USA) was used to generate curves and derive IC50 values of tested peptides or compounds, if applicable.
TR-FRET screen for identifying MAGE-A11 small molecule inhibitors was performed as follows. The primary one-concentration screening and subsequent 10 or 20-concentration dose-response tests were accomplished with an automated High Throughput Screening system (HighRes Biosolutions, Beverly, MA)[30]. In the primary screening, 15 µl/well FAM-PCF11_4 (267 nM) was first dispensed with a Multidrop Combi Reagent Dispenser (Thermo Fisher Scientific, Waltham, MA) to black 384-well low-volume assay plates. The plates were spun down with a Velocity11 VSpin microplate centrifuge (Agilent Technologies, Santa Clara, CA). In total, 30 nl/well of 10 mM compound/DMSO solutions, or DMSO alone, were transferred from compound plates (the St. Jude FDA drug and bioactive library, Drug-like library and Lead-like library) or a control plate to the assay plates with a Pin Tool (V&P Scientific, San Diego, CA). The compounds were arrayed in columns 3–12 and columns 15–24 of compound plates. The controls were arrayed in columns 1, 2, 13, and 14 of a compound plate. In all, 5 µl/well Tb-anti-GST (20 nM) and GST-MAGE-A11 (20 nM) or 5 µl/well Tb-anti-GST (20 nM) alone was then dispensed to selected wells with a Multidrop Combi Reagent Dispenser. The final assay volume was 20 µl/well. The final DMSO concentration was 0.25% (v/v) (0.1% (v/v) from the FAM-PCF11_4 DMSO stock solution and 0.15% (v/v) from the compound-DMSO solution or the DMSO for the control wells). The final tested compound concentration was 15 µM. The final FAM-PCF11_4 concentration was 200 nM and the final Tb-anti-GST concentration was 5 nM. The final GST-MAGE-A11 concentration was 5 nM except for those selected positive control wells in which GST-MAGE-A11 was not presented. The plates were then shaken with a big bear shaker (Big Bear Automation, Santa Clara, California) and spun down with the Velocity11 VSpin microplate centrifuge for 20 s. The plates were then incubated at room temperature in a Liconic incubator (Liconic US, Woburn, MA) for 90 min. The TR-FRET signals for individual wells were measured with a PHERAstar FS plate reader. The %Inhibition of each tested inhibitor was calculated by using Eq. 1.

Compound | IC50
COc1cccc(CNCCCNc2ccnc3cc(Cc4ccc(C#N)cc4)ccc23)c1O [SJ000311303-1] | 51 µM
N#Cc1ccc(Cc2ccc3c(NCCCNCc4cccc5c4OCO5)ccnc3c2)cc1 [SJ000311304-1] | 66 µM
c1ccc(Cc2ccc3c(NCCCNCc4cccc5c4OCO5)ccnc3c2)cc1 [SJ000311308-1] | 46.1 µM
COc1ccc(F)cc1CNCCCNc1ccnc2cc(Cc3ccccc3)ccc12 [SJ000311309-1] | 18.3 µM
COc1cc(Cc2ccc3c(NCCCNCc4cccc(OC)c4O)ccnc3c2)cc(OC)c1 [SJ000311311-1] | 33.6 µM
COc1cc(Cc2ccc3c(NCCCNCc4cccc5c4OCO5)ccnc3c2)cc(OC)c1 [SJ000311312-1] | 31.3 µM
COc1cc(Cc2ccc3c(NCCCNCc4cc(F)ccc4OC)ccnc3c2)cc(OC)c1 [SJ000311313-1] | 33.8 µM
COc1cccc(CNCCCNc2ccnc3cc(Cc4c(Cl)cccc4Cl)ccc23)c1O [SJ000311315-1] | 13.8 µM
Clc1cccc(Cl)c1Cc1ccc2c(NCCCNCc3cccc4c3OCO4)ccnc2c1 [SJ000311316-1] | 11 µM
COc1ccc(F)cc1CNCCCNc1ccnc2cc(Cc3c(Cl)cccc3Cl)ccc12 [SJ000311317-1] | 12.2 µM
COc1cccc(CNCCCNc2ccnc3cc(Cc4cc(C)cc(C)c4)ccc23)c1O [SJ000311319-1] | 23.6 µM
Cc1cc(C)cc(Cc2ccc3c(NCCCNCc4cccc5c4OCO5)ccnc3c2)c1 [SJ000311320-1] | 16.3 µM
COc1ccc(F)cc1CNCCCNc1ccnc2cc(Cc3cc(C)cc(C)c3)ccc12 [SJ000311321-1] | 9.04 µM
COc1cccc(CNCCCNc2ccnc3cc(Cc4ccc(F)cc4Cl)ccc23)c1O [SJ000311323-1] | 17.6 µM
Fc1ccc(Cc2ccc3c(NCCCNCc4cccc5c4OCO5)ccnc3c2)c(Cl)c1 [SJ000311324-1] | 20.6 µM
COc1ccc(F)cc1CNCCCNc1ccnc2cc(Cc3ccc(F)cc3Cl)ccc12 [SJ000311325-1] | 17.6 µM
O=C1C(Cl)=C(NCCN2CCOCC2)C(=O)c2ncccc21 [SJ000312204-6] | 2.25 µM
Cc1ccc(S(=O)(=O)c2nc(-c3ccccc3C)oc2N2CC(C)OC(C)C2)cc1 (centres unmarked) [SJ000329041-1] | 11.8 µM
Cc1ccc(S(=O)(=O)c2nc(-c3ccccc3Cl)oc2N2CC(C)OC(C)C2)cc1 (centres unmarked) [SJ000329066-1] | 13 µM
CC1CN(c2oc(-c3ccccc3F)nc2S(=O)(=O)c2ccc(F)cc2)CC(C)O1 (centres unmarked) [SJ000329067-1] | 27.3 µM
O=C1OCC(c2ccc(OC(F)F)cc2)=C1c1ccc([N+](=O)[O-])cc1 [SJ000368145-1] | 40.8 µM
CCCCCn1c(-c2ccc(F)c(Br)c2)nc2c1c(=O)[nH]c(=O)n2CCCC [SJ000378900-1] | 2.64 µM
C=C(C)CSc1nc2cc(-c3ccccc3)sc2c(=O)n1CCN1CCOCC1 [SJ000456069-1] | 0.861 µM

Same assay, conditions: Supplementary Data 3, 59 quinoline compounds; read-out: TR-FRET IC50

Compound | IC50
c1ccc(Cc2ccc3c(NCCCNCc4ccco4)ccnc3c2)cc1 [SJ000311306-2, C(CNCc1occc1)CNc2ccnc3cc(Cc4ccccc4)ccc23] | 32.2 µM
Clc1cccc(Cl)c1Cc1ccc2c(NCCCNCc3ccco3)ccnc2c1 [SJ000311314-1, Clc1cccc(Cl)c1Cc2ccc3c(NCCCNCc4occc4)ccnc3c2] | 38.4 µM
Cc1cc(C)cc(Cc2ccc3c(NCCCNCc4ccco4)ccnc3c2)c1 [SJ000311318-2, Cc1cc(C)cc(Cc2ccc3c(NCCCNCc4occc4)ccnc3c2)c1] | > 70 µM
Oc1c(F)cc(F)cc1CN(CCCCNc1ccnc2cc(Cl)ccc12)Cc1ccccc1 [SJ000357506-2, Oc1c(F)cc(F)cc1CN(CCCCNc2ccnc3cc(Cl)ccc23)Cc4ccccc4] | > 70 µM
CC(C)(C)CCN(CCCCNc1ccnc2cc(Cl)ccc12)Cc1ccccc1 [SJ000357537-2, CC(C)(C)CCN(CCCCNc1ccnc2cc(Cl)ccc12)Cc3ccccc3] | > 70 µM
FC(F)(F)c1ccc2c(NCCCNCc3ccc[nH]3)ccnc2c1 [SJ000361105-1, FC(F)(F)c1ccc2c(NCCCNCc3ccc[nH]3)ccnc2c1] | 33 µM
CCCCCCNCCCNc1ccnc2cc(C(F)(F)F)ccc12 [SJ000361124-1] | 57.6 µM
Cc1cc(C)c(CN(CCCNc2ccnc3cc(Cl)ccc23)Cc2ccccc2)c(C)c1 [SJ000361169-2, Cc1cc(C)c(CN(CCCNc2ccnc3cc(Cl)ccc23)Cc4ccccc4)c(C)c1] | > 70 µM
Clc1ccc2c(NCCCCN(Cc3ccccc3)CC3CCCCC3)ccnc2c1 [SJ000361194-2, Clc1ccc2c(NCCCCN(CC3CCCCC3)Cc4ccccc4)ccnc2c1] | > 70 µM
Clc1ccc(CN(CCCCNc2ccnc3cc(Cl)ccc23)Cc2ccccc2)c(Cl)c1 [SJ000361207-2, Clc1ccc(CN(CCCCNc2ccnc3cc(Cl)ccc23)Cc4ccccc4)c(Cl)c1] | > 70 µM
CCC(C)CN(CCCCNc1ccnc2cc(Cl)ccc12)Cc1ccccc1 (centres unmarked) [SJ000361208-2, CCC(C)CN(CCCCNc1ccnc2cc(Cl)ccc12)Cc3ccccc3] | > 70 µM
Cc1ccc(C)c(CN(CCCCNc2ccnc3cc(Cl)ccc23)Cc2ccccc2)c1 [SJ000361209-2, Cc1ccc(C)c(CN(CCCCNc2ccnc3cc(Cl)ccc23)Cc4ccccc4)c1] | > 70 µM
CCCN(CCCNc1ccnc2cc(C(F)(F)F)ccc12)Cc1ccc[nH]1 [SJ000361255-1, CCCN(CCCNc1ccnc2cc(ccc12)C(F)(F)F)Cc3ccc[nH]3] | > 70 µM
CCCN(CCCNc1ccnc2cc(C(F)(F)F)ccc12)CC1CC1 [SJ000361266-1, CCCN(CCCNc1ccnc2cc(ccc12)C(F)(F)F)CC3CC3] | > 70 µM
CCCN(CCCNc1ccnc2cc(C(F)(F)F)ccc12)CC1CCCCC1 [SJ000361268-1, CCCN(CCCNc1ccnc2cc(ccc12)C(F)(F)F)CC3CCCCC3] | > 70 µM
CCCN(CCCNc1ccnc2cc(C(F)(F)F)ccc12)CC(CC)CC [SJ000361269-1, CCCN(CCCNc1ccnc2cc(ccc12)C(F)(F)F)CC(CC)CC] | > 70 µM
CCCCCN(CCC)CCCNc1ccnc2cc(C(F)(F)F)ccc12 [SJ000361271-1, CCCCCN(CCC)CCCNc1ccnc2cc(ccc12)C(F)(F)F] | > 70 µM
Clc1ccc2c(NCCCN(Cc3ccccc3)Cc3ccc4[nH]ccc4c3)ccnc2c1 [SJ000520430-1, Clc1ccc2c(NCCCN(Cc3ccccc3)Cc4ccc5[nH]ccc5c4)ccnc2c1] | 41.7 µM
Clc1ccc2c(NCCCN(Cc3ccccc3)Cc3c[nH]c4ccccc34)ccnc2c1 [SJ000520433-1, Clc1ccc2c(NCCCN(Cc3ccccc3)Cc4c[nH]c5ccccc45)ccnc2c1] | > 70 µM
Clc1ccc2c(NCCCCN(Cc3ccccc3)Cc3ccc4[nH]ccc4c3)ccnc2c1 [SJ000520434-1, Clc1ccc2c(NCCCCN(Cc3ccccc3)Cc4ccc5[nH]ccc5c4)ccnc2c1] | 23.4 µM
COc1ccc(C(F)(F)F)cc1CN(CCCCNc1ccnc2cc(Cl)ccc12)Cc1ccccc1 [SJ000520444-1, COc1ccc(cc1CN(CCCCNc2ccnc3cc(Cl)ccc23)Cc4ccccc4)C(F)(F)F] | > 70 µM
